Tests used:
Test in all cases: Post-Emergent Test III (Wheat and Barley)
[1] = system: APESV (windgrass); type: in vivo, Apera spica-venti
In short: (§1)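 Injury was rated visually on a 0 to 100 percent scale 21 days after treatment, relative to untreated plants, and probit analysis of multiple dose rates gave growth-reduction values. Plants at the second or third true leaf stage had been track-sprayed at 187 L/ha.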

[2] = system: KCHSC (kochia); type: in vivo, Kochia scoparia
In short: as §1

[3] = system: BRSSS; type: in vivo; conditions: for Visual Growth Reduction (%) 21 Days After Application, BRSSS: postemergence
In short: as §1

[4] = system: HORSS; type: in vivo
In short: as §1

[5] = system: TRZSS; type: in vivo
In short: as §1

[6] = system: PAPRH (common poppy); type: in vivo, Papaver rhoeas; conditions: for Visual Growth Reduction (%) 21 Days After Application, PAPRH: postemergence
In short: as §1

[7] = system: POLCO (wild buckwheat); type: in vivo, Polygonum convolvulus; conditions: for Visual Growth Reduction (%) 21 Days After Application, POLCO: postemergence
In short: as §1

[8] = system: SASKR (Russian thistle); type: in vivo, Salsola tragus; conditions: for Visual Growth Reduction (%) 21 Days After Application, SASKR: postemergence
In short: as §1

[9] = effective dose for growth reduction of 50 percent, probit analysis
[10] = effective dose for growth reduction of 80 percent, probit analysis
[11] = effective dose for growth reduction of 90 percent, probit analysis
[12] = effective dose for growth reduction of 10 percent, probit analysis
[13] = effective dose for growth reduction of 20 percent, probit analysis

Question: Which pest or weed control at 35 g/ha ([1]; Apera spica-venti, post-emergence, 504 h, 35 g ai/ha, postemergence, read-out: Visual Growth Reduction (%) 21 Days After Application, APESV) does the source give for `COC(=O)c1nc(-c2ccc(Cl)c(F)c2C)cc(N)c1Cl` [Compound 73] here?
Answer: 45 to 59%

Question: And the pest or weed control at 70 g/ha ([1]; Apera spica-venti, post-emergence, 504 h, 70 g ai/ha, postemergence, read-out: Visual Growth Reduction (%) 21 Days After Application, APESV)?
Answer: 60 to 74%

Question: What about the pest or weed control at 140 g/ha ([1]; Apera spica-venti, post-emergence, 504 h, 140 g ai/ha, postemergence, read-out: Visual Growth Reduction (%) 21 Days After Application, APESV) of the same compound?
Answer: 85 to 94%

Question: And the “GR50, APESV” value [1, 9]?
Answer: 32 g ai/ha

Question: What about the “GR80, APESV” value [1, 10] of the same compound?
Answer: 90 g ai/ha

Question: What about the “GR90, APESV” value [1, 11] of the same compound?
Answer: >140 g ai/ha

Question: And the pest or weed control at 35 g/ha ([2]; Bassia scoparia, post-emergence, 504 h, 35 g ai/ha, postemergence, read-out: Visual Growth Reduction (%) 21 Days After Application, KCHSC)?
Answer: 85 to 94%

Question: What about the pest or weed control at 70 g/ha ([2]; Bassia scoparia, post-emergence, 504 h, 70 g ai/ha, postemergence, read-out: Visual Growth Reduction (%) 21 Days After Application, KCHSC) of the same compound?
Answer: 95 to 100%

Question: What about the pest or weed control at 140 g/ha ([2]; Bassia scoparia, post-emergence, 504 h, 140 g ai/ha, postemergence, read-out: Visual Growth Reduction (%) 21 Days After Application, KCHSC) of the same compound?
Answer: 95 to 100%

Question: What about the “GR50, KCHSC” value [2, 9] of the same compound?
Answer: 8 g ai/ha

Question: What about the “GR80, KCHSC” value [2, 10] of the same compound?
Answer: 21 g ai/ha

Question: What about the “GR90, KCHSC” value [2, 11] of the same compound?
Answer: 35 g ai/ha

Question: And the “Visual Growth Reduction (%) 21 Days After Application, BRSSS” value ([3]; 35 g ai/ha)?
Answer: C (75-84)

Question: What about the “Visual Growth Reduction (%) 21 Days After Application, BRSSS” value ([3]; 70 g ai/ha) of the same compound?
Answer: B (85-94)

Question: What about the “Visual Growth Reduction (%) 21 Days After Application, BRSSS” value ([3]; 140 g ai/ha) of the same compound?
Answer: A (95-100)

Question: And the “GR50, BRSSS” value [3, 9]?
Answer: 5 g ai/ha

Question: And the “GR80, BRSSS” value [3, 10]?
Answer: 29 g ai/ha

Question: And the “GR90, BRSSS” value [3, 11]?
Answer: 73 g ai/ha

Question: And the pest or weed control at 35 g/ha ([4]; Hordeum vulgare, post-emergence, 504 h, 35 g ai/ha, postemergence, read-out: Visual Growth Reduction (%) 21 Days After Application, HORSS)?
Answer: 60 to 74%

Question: And the pest or weed control at 70 g/ha ([4]; Hordeum vulgare, post-emergence, 504 h, 70 g ai/ha, postemergence, read-out: Visual Growth Reduction (%) 21 Days After Application, HORSS)?
Answer: 60 to 74%

Question: What about the pest or weed control at 140 g/ha ([4]; Hordeum vulgare, post-emergence, 504 h, 140 g ai/ha, postemergence, read-out: Visual Growth Reduction (%) 21 Days After Application, HORSS) of the same compound?
Answer: 75 to 84%

Question: What about the “GR10, HORSS” value [4, 12] of the same compound?
Answer: 2 g ai/ha

Question: What about the “GR20, HORSS” value [4, 13] of the same compound?
Answer: 5 g ai/ha

Question: And the pest or weed control at 35 g/ha ([5]; Triticum aestivum, post-emergence, 504 h, 35 g ai/ha, postemergence, read-out: Visual Growth Reduction (%) 21 Days After Application, TRZSS)?
Answer: 60 to 74%

Question: What about the pest or weed control at 70 g/ha ([5]; Triticum aestivum, post-emergence, 504 h, 70 g ai/ha, postemergence, read-out: Visual Growth Reduction (%) 21 Days After Application, TRZSS) of the same compound?
Answer: 60 to 74%

Question: What about the pest or weed control at 140 g/ha ([5]; Triticum aestivum, post-emergence, 504 h, 140 g ai/ha, postemergence, read-out: Visual Growth Reduction (%) 21 Days After Application, TRZSS) of the same compound?
Answer: 75 to 84%

Question: And the “GR10, TRZSS” value [5, 12]?
Answer: 3 g ai/ha

Question: And the “GR20, TRZSS” value [5, 13]?
Answer: 6 g ai/ha

Question: What about the “Visual Growth Reduction (%) 21 Days After Application, PAPRH” value ([6]; 35 g ai/ha) of the same compound?
Answer: D (60-74)

Question: What about the “Visual Growth Reduction (%) 21 Days After Application, PAPRH” value ([6]; 70 g ai/ha) of the same compound?
Answer: D (60-74)

Question: And the “Visual Growth Reduction (%) 21 Days After Application, PAPRH” value ([6]; 140 g ai/ha)?
Answer: A (95-100)

Question: And the “GR50, PAPRH” value [6, 9]?
Answer: 15 g ai/ha

Question: And the “GR80, PAPRH” value [6, 10]?
Answer: 48 g ai/ha

Question: What about the “GR90, PAPRH” value [6, 11] of the same compound?
Answer: 90 g ai/ha

Question: What about the “Visual Growth Reduction (%) 21 Days After Application, POLCO” value ([7]; 35 g ai/ha) of the same compound?
Answer: A (95-100)

Question: What about the “Visual Growth Reduction (%) 21 Days After Application, POLCO” value ([7]; 70 g ai/ha) of the same compound?
Answer: A (95-100)

Question: And the “Visual Growth Reduction (%) 21 Days After Application, POLCO” value ([7]; 140 g ai/ha)?
Answer: A (95-100)

Question: What about the “GR50, POLCO” value [7, 9] of the same compound?
Answer: 7 g ai/ha

Question: What about the “GR80, POLCO” value [7, 10] of the same compound?
Answer: 10 g ai/ha

Question: And the “GR90, POLCO” value [7, 11]?
Answer: 12 g ai/ha

Question: And the “Visual Growth Reduction (%) 21 Days After Application, SASKR” value ([8]; 35 g ai/ha)?
Answer: C (75-84)

Question: And the “Visual Growth Reduction (%) 21 Days After Application, SASKR” value ([8]; 70 g ai/ha)?
Answer: C (75-84)

Question: What about the “Visual Growth Reduction (%) 21 Days After Application, SASKR” value ([8]; 140 g ai/ha) of the same compound?
Answer: C (75-84)

Question: And the “GR50, SASKR” value [8, 9]?
Answer: 1 g ai/ha

Question: And the “GR80, SASKR” value [8, 10]?
Answer: 84 g ai/ha

Question: And the “GR90, SASKR” value [8, 11]?
Answer: >140 g ai/ha

Source: patent US10765114B2, “4-amino-6-(pyridyl and 2-substitutedphenyl)-picolinates and 6-amino-2-(pyridyl and 2-substitutedphenyl)-pyrimidine-4-carboxylates and their use as herbicides” (Dow AgroSciences LLC, priority 2013, dated 2020)
